Reference: ChEMBL document CHEMBL3272307, “Imidazo(1,2-c)pyrimidine nucleosides. Synthesis and biological evaluation of certain 1-(beta-D-arabinofuranosyl)imidazo(1,2-c)pyrimidines” (1976)
Values after ≈ are worked out from the molar mass of the structure shown. Active and inactive are the calls of the source. The calls are words filed in the database; no cut-off is given here.

Tests used:
[1] = system: KB; experiment: Antiviral activity against Rhinovirus type 13 infected in human KB cells assessed as inhibition of virus-induced cytopathic effect at 1 to 1000 ug/ml after 72 hrs; assay type: functional, cell-based; settings: Human rhinovirus A13
[2] = system: Human alphaherpesvirus 1; experiment: Antiviral activity against Herpes simplex virus 1 infected in human KB cells assessed as inhibition of virus induced cytopathic effects at 1 to 1000 ug/ml after 72 hrs; assay type: functional, organism-based
[3] = system: Klebsiella pneumoniae; experiment: Antimicrobial activity against Klebsiella pneumoniae clinical isolate at 0.005 to 0.4 umol/ml after 24 hrs by broth dilution assay; assay type: functional, organism-based
[4] = system: Proteus mirabilis; experiment: Antimicrobial activity against Proteus mirabilis clinical isolate at 0.005 to 0.4 umol/ml after 24 hrs by broth dilution assay; assay type: functional, organism-based
[5] = system: Candida albicans; experiment: Antimicrobial activity against Candida albicans clinical isolate at 0.005 to 0.4 umol/ml after 24 hrs by broth dilution assay; assay type: functional, organism-based
[6] = system: Staphylococcus aureus; experiment: Antimicrobial activity against Staphylococcus aureus clinical isolate after 24 hrs by broth dilution assay; assay type: functional
[7] = system: Escherichia coli; experiment: Antimicrobial activity against Escherichia coli clinical isolate at 0.005 to 0.4 umol/ml after 24 hrs by broth dilution assay; assay type: functional, organism-based
[8] = system: Trichophyton mentagrophytes; experiment: Antimicrobial activity against Trichophyton mentagrophytes clinical isolate after 48 hrs by broth dilution assay; assay type: functional
[9] = system: Human respirovirus 3; experiment: Antiviral activity against Parainfluenza virus type 3 infected in human KB cells assessed as inhibition of virus-induced cytopathic effect at 1 to 1000 ug/ml after 72 hrs; assay type: functional, organism-based
[10] = system: Trichophyton mentagrophytes; experiment: Antimicrobial activity against Trichophyton mentagrophytes clinical isolate at 0.005 to 0.4 umol/ml after 48 hrs by broth dilution assay; assay type: functional, organism-based
[11] = system: Staphylococcus aureus; experiment: Antimicrobial activity against Staphylococcus aureus clinical isolate at 0.005 to 0.4 umol/ml after 24 hrs by broth dilution assay; assay type: functional, organism-based

Structure (SMILES) | Activity [1] | Activity [2] | Activity [3] | Activity [4] | Activity [5] | MIC [6] [µM] | Activity [7] | MIC [8] [µM] | Activity [9] | Activity [10] | Activity [11]
O=c1nccc2n([C@@H]3O[C@H](COCc4ccccc4)[C@@H](OCc4ccccc4)[C@@H]3OCc3ccccc3)ccn12 | Active | inactive | inactive | inactive | inactive | 160 (≈ 86 µg/mL) | inactive | 40 (≈ 21.5 µg/mL) | inactive | – | –
O=c1nc(Cl)cc2n([C@@H]3O[C@H](COCc4ccccc4)[C@@H](OCc4ccccc4)[C@@H]3OCc3ccccc3)ccn12 | inactive | inactive | inactive | inactive | inactive | – | inactive | – | inactive | inactive | inactive
O=c1nccc2n([C@@H]3O[C@H](CO)[C@@H](O)[C@@H]3O)ccn12 | inactive | inactive | inactive | inactive | inactive | – | inactive | – | inactive | inactive | inactive
C[Si](C)(C)Oc1nc(Cl)cc2nccn12 | inactive | inactive | inactive | inactive | inactive | – | inactive | – | inactive | inactive | inactive
Nc1cc2n([C@@H]3O[C@H](CO)[C@@H](O)[C@@H]3O)ccn2c(=O)n1 | inactive | inactive | inactive | inactive | inactive | – | inactive | – | inactive | inactive | inactive
O=c1nccc2n([C@@H](CO)OC(CO)CO)ccn12 | inactive | inactive | inactive | inactive | inactive | – | inactive | – | inactive | inactive | inactive
Nc1cc2n([C@@H]3O[C@H](COCc4ccccc4)[C@@H](OCc4ccccc4)[C@@H]3OCc3ccccc3)ccn2c(=O)n1 | Active | inactive | inactive | inactive | inactive | 160 (≈ 88.4 µg/mL) | inactive | 40 (≈ 22.1 µg/mL) | inactive | – | –
Cl[C@H]1O[C@H](COCc2ccccc2)[C@@H](OCc2ccccc2)[C@@H]1OCc1ccccc1 | inactive | inactive | inactive | inactive | inactive | – | inactive | – | inactive | inactive | inactive
